Values quoted from earlier work as cited in patent US9750251B2, “Liquid herbicidal preparations” (BAYER INTELLECTUAL PROPERTY GMBH, priority 2008, dated 2017).
Values after ≈ are worked out from the molar mass of the structure shown.

Details: at 25° C.

Q: Which water solubility does the source give for `CCOC1Oc2ccc(OS(C)(=O)=O)cc2C1(C)C` (racemic) [ethofumesate] here?
A: 50 µg/mL (≈ 175 µM)
